Among the data in patent publication US20160039825A1 (BIOGEN MA INC., priority 2013, published 2016) are IC50 values, retold here.

Bounds are passed on as bounds.

This experiment deals with T1, Human ATX protein (Homo sapiens, UniProt Q13822).
T1 construct: made in house
The experiment is described as follows: Autotaxin (ATX) assay, FRET with FS-3 substrate. In kind it is biochemical. As to conditions: upper bound bins (no greater than 100, 250 or 500 nM); FS-3 2 μM, ATX 1.0 μg/mL. Summed up:
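Hydrolysis of the FRET substrate FS-3 (2 μM final) unquenches fluorescein, read at excitation 485 nm and emission 538 nm after 2 h at room temperature, protected from light. Purified human ATX (1.0 μg/mL) and compound were first incubated for 30 min in pH 7.4 Tris/salt buffer containing 1 mg/mL fatty acid-free BSA.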
One may read the IC50 as the midpoint of a concentration-inhibition curve. Higher therefore signals lower potency. For `CC(NC1COC1)c1cc2n(n1)CCCN(C(=O)OCc1cc(C(F)(F)F)cc(C(F)(F)F)c1)C2` (stereo not shown) [Example 509], the IC50 was ≤ 250 nM.
For `O=C(OCc1cc(C(F)(F)F)cc(C(F)(F)F)c1)N1CCCn2nc(CN3CCC(F)CC3)cc2C1` [Example 510], the IC50 is ≤ 100 nM.
Consider `O=C(OCc1cc(C(F)(F)F)cc(C(F)(F)F)c1)N1CCCn2nc(CNC3COC3)cc2C1` [Example 511], for which the IC50 is ≤ 250 nM.
For `CC(c1cc2n(n1)CCCN(C(=O)OCc1cc(C(F)(F)F)cc(C(F)(F)F)c1)C2)N1CCC(F)CC1` (stereo not shown) [Example 512], the IC50 is ≤ 100 nM.
The same measure for `O=C(OCc1cc(C(F)(F)F)cc(C(F)(F)F)c1)N1CCCn2nc(CNC3CC3)cc2C1` [Example 513]: ≤ 250 nM; for `CN1CCN(C(=O)c2nn3c(c2F)CN(C(=O)OCc2cc(Cl)cc(C(F)(F)F)c2)CCC3)CC1` [Example 515]: ≤ 100 nM; for `O=C(OCc1cc(C(F)(F)F)cc(C(F)(F)F)c1)N1CCn2nc(C3=CCNCC3)cc2C1` [Example 516]: ≤ 100 nM.
